“Also recorded” adds a separate entry of the source.
Key:
[1] = system: TIB-71 RAW 264.7 macrophages; experiment: MTT cytotoxicity assay; format: cell-based, Mus musculus; settings: for cytotoxicity (MTT), broad screening / cytotoxicity (MTT) / concentration from which NET1 and NET2 displayed similar cytotoxicity: LPS-free; for cytotoxicity (MTT), broad screening: peptide 0.125-64 µg/mL; for cytotoxicity (MTT), broad screening / cytotoxicity (MTT): triplicates; for cytotoxicity (MTT): peptide concentrations up to 4 μg/mL; for concentration from which NET1 and NET2 displayed similar cytotoxicity: screening 64 to 0.125 µg/mL; for increase of toxicity compared to that in the absence of LPS: with LPS (1, 10, 100 ng/mL) versus without LPS
Procedure: The TIB-71 RAW 264.7 macrophage line, which was obtained from Mus musculus, was used in this study, and this cell line was supplied by ATCC (Manassas, VA, USA). The MTT Cell Proliferation Kit (Sigma–Aldrich, St. Louis, MO, USA), a colorimetric method, was used to evaluate the damage caused by the peptides in eukaryotic cells. TIB-71 RAW 264.7 macrophages were revived under appropriate culture conditions (37°C, 5% CO2) to prepare for the experiment. The final concentration of peptides ranged 0.125–64 μg/mL. Samples were examined in triplicates for each concentration. Cells incubated without peptide treatment under the same conditions were used as the control. Magainin 2 (Mag2), a known natural AMP with no cytotoxic effects, was used as a positive control. The results were obtained using a 96-well plate reader at 550 and 690 nm.

[2] = system: IFN-γ secretion from TIB-71 macrophages; experiment: IFN-γ secretion by ELISA; format: cell-based, mouse
Procedure: Within the scope of the ELISA study, the effect of varying concentrations of the peptides we synthesized on the mouse macrophage cell line was examined. In this study, a cell line that was not treated with AMPs and LPS, a cell line treated only with AMPs, a cell line treated only with LPS, and a cell line treated with both LPS and AMPs were used. To find the changing TNF-α ratio after incubation, the kit named Mouse Tumor Necrosis Factor α ELISA Kit-RAB0477 (Sigma-Aldrich) was applied according to the protocol. Graphpad Prism (9.0.0) was utilized for performing a one-way ANOVA test (α = 0.05) for the statistical analysis. Similarly, ELISA was applied to measure the change in IFN-γ levels in response to the peptides and LPS. In this experiment, the Mouse IFN-γ ELISA Kit-E-EL-[…] was applied according to the specified kit protocol, and the results were evaluated.

[3] = system: TNF-α secretion from TIB-71 macrophages; experiment: TNF-α secretion by ELISA; format: cell-based, mouse; settings: for TNF-α response: peptide together with LPS (50 ng/mL), NET1 versus peptide only, NET2 at 2 or 4 µg/mL
Procedure: Within the scope of the ELISA study, the effect of varying concentrations of the peptides we synthesized on the mouse macrophage cell line was examined.
In this study, a cell line that was not treated with AMPs and LPS, a cell line treated only with AMPs, a cell line treated only with LPS, and a cell line treated with both LPS and AMPs were used. To find the changing TNF-α ratio after incubation, the kit named Mouse Tumor Necrosis Factor α ELISA Kit-RAB0477 (Sigma–Aldrich) was applied according to the protocol. Graphpad Prism (9.0.0) was utilized for performing a one-way ANOVA test (α = 0.05) for the statistical analysis.

[4] = system: IL-6 expression in TIB-71 macrophages; experiment: IL-6 expression by western blotting; format: cell-based, mouse; settings: for IL-6 expression: peptide alone, normalized to β-actin, versus unstimulated cells, repeated twice
Procedure: Protein was extracted from TIB-71 cells for use in western blotting. For this purpose, the supernatant of the cells grown in the appropriate environment was separated for ELISA, whereas protein was extracted from the cellular pellets. Protein obtained using the Protein Extraction Kit (Abcam, Cambridge, UK) was prepared for western blotting. The concentrations of protein samples were determined using the Pierce BCA protein assay kit (Thermo Fisher Scientific). The results were analyzed by reading them on a 96-well plate reader at 565 nm. IL-6 was separated by 12% (w/v) SDS-PAGE and transferred onto a PVDF membrane using the wet transfer technique to compare the expression levels of the markers. Proteins were measured using horseradish peroxidase (HRP)-based clarity western ECL substrate and read using ChemiDoc devices. The area of the bands obtained in the western blotting results was computed using Image Lab software. Specifically, the volume occupied by the bands on the membrane was determined, and the band volume of IL-6 was normalized to that of β-actin to assess protein expression in a semiquantitative manner. Microsoft Excel was used for the semiquantitative analysis. IL-6 secretion by mouse macrophages in response to AMP exposure was examined by GraphPad Prism 9.0.0 one-way ANOVA test (GraphPad, La Jolla, CA, USA).

[5] = peptide 0.5 µg/mL, response to decreasing LPS concentrations (1, 10, 100 ng/mL)
[6] = peptide 2 µg/mL, LPS 1, 10, 100 ng/mL
[7] = peptide 4 µg/mL, LPS 1, 10, 100 ng/mL
[8] = peptide together with LPS (50 ng/mL)

Row | Substance | cytotoxicity (MTT), broad screening [1] | cytotoxicity (MTT) [1] | concentration from which NET1 and NET2 displayed similar cytotoxicity [1] | cytotoxicity in the presence of LPS [1, 5] | cytotoxicity in the presence of LPS ([1]; peptide 1 µg/mL, LPS 1, 10, 100 ng/mL) | cytotoxicity in the presence of LPS [1, 6] | cytotoxicity in the presence of LPS [1, 7] | increase of toxicity compared to that in the absence of LPS ([1]; peptide 4 µg/mL) | IFN-γ secretion [2, 8] | TNF-α response [3] | IL-6 expression compared with the other groups ([4]; NET1 at the lowest concentration of 2 µg/mL) | IL-6 expression ([4]; no LPS) | IFN-γ secretion ([2]; peptide alone, LPS-free medium, three concentrations, versus control, one-way ANOVA) | TNF-α secretion ([3]; peptide alone, LPS-free medium) | IL-6 expression lower than that in NET1-treated cells ([4]; NET2 used alone, no LPS) | IL-6 expression in cells treated with LPS ([4]; peptide 8 µg/mL with LPS) | IL-6 expression in combination with LPS ([4]; peptide 2 and 4 µg/mL with LPS, versus the other groups)
1 | RLLLRLLRRLLRLLLR-NH2 [NET1, designed LL-37-like 16-amino acid antimicrobial peptide, …-NH2] | low cytotoxicity | did not cause significant cytotoxicity | 4000 ng/mL | decreased NET1 cytotoxicity | lower cytotoxicity | lower cytotoxicity than NET2 | lowest toxicity | threefold | decrease IFN-γ expression | did not differ | threefold lower | decreased |  |  |  |  | 
2 | RLLLRLLRRLLRLLLR-NH2 [NET2, designed LL-37-like 16-amino acid antimicrobial peptide, …-NH2] | low cytotoxicity; also recorded: lower toxicity than the other peptides | did not cause significant cytotoxicity | 4000 ng/mL | increased cytotoxicity |  | increased with as the LPS concentration decreased | increased as the LPS concentration decreased | tenfold | significantly increased | increased significantly |  | reduced IL-6 expression | lower IFN-γ expression than NET1; also recorded: significantly increased | decreased with decreasing peptide concentrations | 50% | anti-inflammatory effect | significantly increased
